Where “and” joins values, the source holds several entries; their conditions need not be identical. Identical values can stand only once. Like-named read-outs stand apart in the source and are kept apart here.
How the values were obtained:
murine MLKL-FKBP^F36V = biological target: T1, murine MLKL-FKBP^F36V (Homo sapiens, UniProt P62942, F37V); type: cell-based; details: 31.2-500 nM, 5 h
T1 construct: expressed in transfected cells; host or cells: Mlkl-/- mouse dermal fibroblasts, doxycycline-inducible
Description: All timepoint experiments were performed as reverse timepoints in order to harvest all cells at the same time. At the indicated time points cells were lysed in NuPAGE LDS lysis buffer (Invitrogen) diluted to 1× in DISC lysis buffer (20 mM Tris-HCl pH7.5, 150 mM NaCl, 2 mM EDTA pH 8.0, 1% Triton X-100, 10% glycerol, H20)) supplemented with β-Mercaptoethanol (2%), protease and phosphatase inhibitors. Lysates were run through polypropylene columns (Pierce) to shred DNA. […] Membranes were blocked in 5% skim milk (Devondale) in TBS-T (TBS, 0.1% Tween-20) for 1 h prior to immunoblotting with primary antibodies overnight at 4 °C. Unless stated otherwise, all primary antibodies were diluted in TBS-T (TBS, 0.1% Tween-20) containing 5% BSA (Sigma A8022) and 0.04% sodium azide: HaloTag (1:1000, Promega; G9211), NanoLuc (1:500, Promega; N7000), β-actin (1:20,000, Sigma; A-1798), MLKL (1:1000, produced in-house; 3H1 clone)[39], FKBP (1:1000, R&D systems; 422513), caspase-8 (1:1000, Proteintech; 13423-1-AP), Histone H3 (1:1000, Abcam; ab10799), Cadherin (1:1000, Cell Signalling Technologies; 4068 T). Membranes were washed 3 × 5–10 min in TBS-T (TBS, 0.1% Tween-20) prior to the addition of the appropriate secondary antibodies conjugated with horseradish peroxidase (Jaxon laboratories). […]

Fibrillarin-FKBP^F36V = biological target: T2, Fibrillarin-FKBP^F36V (Homo sapiens, UniProt P62942, F37V); type: cell-based; details: 500 nM, 10 h
T2 construct: endogenous in cells; host or cells: 293T, CRISPR/PITCh knock-in at the FBL locus

[1] = tested on: MLKL^−/− HT29 cells expressing MLKL-FKBP^F36V; type: cell-based; details: for TNF+911+zVAD (PI exclusion): MLKL-/- + MLKL FKBPF36V, replicate columns
Description: (§3) Cell death was assessed by flow cytometric analysis of PI exclusion. […] Cell death was assessed by flow cytometric analysis of PI exclusion. […] Cell death was assessed by flow cytometric analysis of PI exclusion. e N = 4, f N = 3 independent experiments (symbols), EB represent mean ± SD. g Western from MLKL^−/−CASP8^−/− HT29 cells stably expressing the doxycycline-inducible C-terminal fusion protein, MLKL-NanoLuc (MLKL-NLuc) and constitutively expressing the C-terminal fusion protein caspase-8-FKBP^F36V. […] Cell death was assessed using an IncuCyte and Cytotox-Red uptake. N = 3 independent experiments, one representative experiment shown, EB represent mean ± SD.
(§4) Degrader compounds or a DMSO vehicle control were added for 5 h, as stated in the Fig. legends. Cells were detached using Trypsin-EDTA (Merck) and resuspended in cell supernatants containing 10 μg/mL propidium iodide (PI). PI exclusion analysis was performed using an LSR II flow cytometer (Becton Dickinson, NJ) with 10,000 single-cell events per sample. Flow cytometry data were analysed using WEASEL version 2.7 software (Frank Battye).

caspase-8-FKBP^F36V = biological target: T3, caspase-8-FKBP^F36V (Homo sapiens, UniProt P62942, F37V); type: cell-based; details: 5 h
T3 construct: expressed in transfected cells; host or cells: MLKL-/-CASP8-/- HT29, constitutive expression

[2] = biological target: recombinant NanoLuc enzyme (Oplophorus gracilirostris, UniProt Q9GV45, A31E/A60N/A81I/F95D/I117V/K70R/L54V/L99Q/M102K/N193R/P142E/Q151K/Q38R/Q45L/V71I/Y165I); type: biochemical
MLKL-NanoLuc = biological target: T4, MLKL-NanoLuc (Oplophorus gracilirostris, UniProt Q9GV45, A31E/A60N/A81I/F95D/I117V/K70R/L54V/L99Q/M102K/N193R/P142E/Q151K/Q38R/Q45L/V71I/Y165I); assay: Western blot of MLKL^−/− HT29 cells expressing MLKL-NanoLuc; type: cell-based, human; details: 62.5-500 nM, 5 h
T4 construct: expressed in transfected cells; host or cells: MLKL-/- HT29 (A12); MLKL-/-CASP8-/- HT29 (A24); doxycycline-inducible
Description: (§1) Cells were seeded in 24-well plates ±doxycycline (20 ng/mL for HEK293T, 40 ng/mL for HT29) and incubated overnight (16–24 h) prior to degrader treatments, as stated in the Fig. legends. All timepoint experiments were performed as reverse timepoints in order to harvest all cells at the same time. At the indicated time points cells were lysed in NuPAGE LDS lysis buffer (Invitrogen) diluted to 1× in DISC lysis buffer (20 mM Tris-HCl pH7.5, 150 mM NaCl, 2 mM EDTA pH 8.0, 1% Triton X-100, 10% glycerol, H20)) supplemented with β-Mercaptoethanol (2%), protease and phosphatase inhibitors. Lysates were run through polypropylene columns (Pierce) to shred DNA. […] Membranes were blocked in 5% skim milk (Devondale) in TBS-T (TBS, 0.1% Tween-20) for 1 h prior to immunoblotting with primary antibodies overnight at 4 °C. Unless stated otherwise, all primary antibodies were diluted in TBS-T (TBS, 0.1% Tween-20) containing 5% BSA (Sigma A8022) and 0.04% sodium azide: HaloTag (1:1000, Promega; G9211), NanoLuc (1:500, Promega; N7000), β-actin (1:20,000, Sigma; A-1798), MLKL (1:1000, produced in-house; 3H1 clone)[39], FKBP (1:1000, R&D systems; 422513), caspase-8 (1:1000, Proteintech; 13423-1-AP), Histone H3 (1:1000, Abcam; ab10799), Cadherin (1:1000, Cell Signalling Technologies; 4068 T). […]
(§2) NC4. […] Cell death was assessed by flow cytometric analysis of PI exclusion. […]

Fibrillarin-NanoLuc = biological target: T5, Fibrillarin-NanoLuc (Oplophorus gracilirostris, UniProt Q9GV45, A31E/A60N/A81I/F95D/I117V/K70R/L54V/L99Q/M102K/N193R/P142E/Q151K/Q38R/Q45L/V71I/Y165I); assay: cell-based; details: HEK-293T; 500 nM, 10 h; read-out: Dmax (densitometry)
T5 construct: endogenous in cells; host or cells: 293T, CRISPR/PITCh knock-in at the FBL locus

NanoLuc-SLC38A2 = biological target: T6, NanoLuc-SLC38A2 (Oplophorus gracilirostris, UniProt Q9GV45, A31E/A60N/A81I/F95D/I117V/K70R/L54V/L99Q/M102K/N193R/P142E/Q151K/Q38R/Q45L/V71I/Y165I); assay: Western blot of 293T cells expressing NanoLuc-SLC38A2; type: cell-based; details: 125-500 nM, 5 h
T6 construct: expressed in transfected cells; host or cells: 293T, doxycycline-induced
Description: as §1, §2

[3] = tested on: MLKL^−/− HT29 cells expressing MLKL-NanoLuc; type: cell-based; details: for Live cells (%PI negative) after TNF+911+zVAD: MLKL-/- + MLKL NanoLuc, independent experiments
Description: as §3, §4

[4] = 5 h pre-treatment, then TSZ 24 h

T3 sequence (P62942 whole entry F37V): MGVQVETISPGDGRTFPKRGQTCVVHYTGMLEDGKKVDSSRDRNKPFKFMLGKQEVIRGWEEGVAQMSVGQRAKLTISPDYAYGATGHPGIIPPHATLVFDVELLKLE
T2 sequence (P62942 whole entry F37V): as above
T1 sequence (P62942 whole entry F37V): as above
Sequence of recombinant NanoLuc enzyme (Q9GV45 other isoform, or with tags, fused parts or gaps with the stated changes): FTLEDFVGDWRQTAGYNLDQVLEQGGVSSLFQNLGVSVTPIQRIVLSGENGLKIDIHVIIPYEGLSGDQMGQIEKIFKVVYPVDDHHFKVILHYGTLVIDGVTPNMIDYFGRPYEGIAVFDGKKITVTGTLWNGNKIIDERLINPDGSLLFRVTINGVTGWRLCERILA
T5 sequence (Q9GV45 other isoform, or with tags, fused parts or gaps with the stated changes): as above
T6 sequence (Q9GV45 other isoform, or with tags, fused parts or gaps with the stated changes): as above
T4 sequence (Q9GV45 other isoform, or with tags, fused parts or gaps with the stated changes): as above

CC[C@H](C(=O)N1CCCC[C@H]1C(=O)O[C@H](CCc1ccc(OC)c(OC)c1)c1ccccc1OCC(=O)NCCCCCCC(=O)N[C@H](C(=O)N1C[C@H](O)C[C@H]1C(=O)N[C@@H](C)c1ccc(-c2scnc2C)cc1)C(C)(C)C)c1cc(OC)c(OC)c(OC)c1 [FV1]
degradation of murine MLKL-FKBP^F36V (murine MLKL-FKBP^F36V): comparable degradation
Dmax (densitometry) (Fibrillarin-FKBP^F36V): ~ 95.9%
concentration sustaining cell survival over 24 h [1, 4]: 3.9 nM
TNF+911+zVAD (PI exclusion) ([1]; degrader 3.9nM): 77.6 and 82.1 and 75.3
TNF+911+zVAD (PI exclusion) ([1]; degrader 7.8nM): 84.5 and 86.7 and 79.8
TNF+911+zVAD (PI exclusion) ([1]; degrader 31.25nM): 80.9 and 86.7 and 82.1
TNF+911+zVAD (PI exclusion) ([1]; degrader 62.5nM): 79.4 and 87 and 83.1
TNF+911+zVAD (PI exclusion) ([1]; degrader 250nM): 80.6 and 84.5 and 80.8
TNF+911+zVAD (PI exclusion) ([1]; degrader 500nM): 69.7 and 81.6 and 78.5
TNF+911+zVAD (PI exclusion) ([1]; degrader 1000nM): 63.8 and 77.3 and 74.7
depletion of caspase-8-FKBP^F36V (caspase-8-FKBP^F36V): could be depleted

CCc1cccc(N(CC)C(=O)Cn2c(C(=O)NC3CCC(C(=O)NCCCCCCCC(=O)NCCCCNc4cccc5c4C(=O)N(C4CCC(=O)NC4=O)C5=O)CC3)cc3ccccc32)c1 (stereo not drawn) [NC4]
reduced inhibition of NanoLuc enzymatic activity compared to the parent inhibitor (NanoLuc inhibitor 2) [2]: ~ 30 fold
degradation of MLKL-NanoLuc, comparison of NanoTACs (MLKL-NanoLuc): most effective degradation profile
Dmax at 0.5 µM (Fibrillarin-NanoLuc): ~52.9%
NanoLuc-SLC38A2 level by Western blot (NanoLuc-SLC38A2): reduction in Nanoluc-SLC38A2
effect on MLKL-NanoLuc-driven necroptosis [3, 4]: sufficient to reduce MLKL-NanoLuc-driven necroptosis
Live cells (%PI negative) after TNF+911+zVAD ([3]; 31.25nM): 46.4 and 73.2 and 58.1
Live cells (%PI negative) after TNF+911+zVAD ([3]; 62.5nM): 53.4 and 72.4 and 68.5
Live cells (%PI negative) after TNF+911+zVAD ([3]; 250nM): 58.1 and 71.5 and 68.6
Live cells (%PI negative) after TNF+911+zVAD ([3]; 500nM): 54.7 and 68.7 and 64.4
Live cells (%PI negative) after TNF+911+zVAD ([3]; 1000nM): 53.1 and 66.7 and 61.4

From paper PMC9019100, “Development of NanoLuc-targeting protein degraders and a universal reporter system to benchmark tag-targeted degradation platforms” (Nature Communications, 2022)
